Source: the Deep4Chem optical property database
Blank lines part the entries; values can stand above or below the molecule they belong to.

Assay: solvent given as SMILES

SMILES: CC1=CC(/C=C/c2ccc([N+](C)(C)C)cc2)=[N+]2C1=C(c1ccc(I)cc1)c1c(C)cc(/C=C/c3ccc([N+](C)(C)C)cc3)n1[B-]2(F)F
- fluorescence lifetime (in CC#N): 5.1 ns

SMILES: CC(C)(C)c1ccc(Oc2cc3c4c(cc(Oc5ccc(C(C)(C)C)cc5)c5c6c(Oc7ccc(C(C)(C)C)cc7)cc7c8c(cc(Oc9ccc(C(C)(C)C)cc9)c(c2c45)c86)C(=O)OC7=O)C(=O)OC3=O)cc1
- fluorescence lifetime (in ClC(Cl)Cl): 6.4 ns

SMILES: CC1(C)C(/C=C/C2=C(c3ccc(C(=O)O)cc3)C(=C/C=C3/N(CCCCS(=O)(=O)[O-])c4ccc(S(=O)(=O)[O-])cc4C3(C)C)/CCC2)=[N+](CCCCS(=O)(=O)[O-])c2ccc(S(=O)(=O)[O-])cc21
- fluorescence lifetime (in CC(C)=O): 1.02 ns
- fluorescence lifetime (in CCO): 1 ns
- fluorescence lifetime (in CO): 0.81 ns
- fluorescence lifetime (in CS(C)=O): 1.33 ns
- fluorescence lifetime (in O): 0.44 ns

SMILES: CNC1=C2C=CC=[N+]2[B-](F)(F)n2cccc21
- fluorescence lifetime (in C1CCCCC1): 4.67 ns
- fluorescence lifetime (in CC(C)=O): 0.726 ns
- fluorescence lifetime (in CCO): 0.774 ns
- fluorescence lifetime (in CCOC(C)=O): 2.04 ns
- fluorescence lifetime (in CO): 0.523 ns
- fluorescence lifetime (in OCC(F)(F)F): 1.4 ns

SMILES: CCCCCCCCCCOc1ccc(C#Cc2ccc(C#Cc3ccc(OCCCCCCCCCC)c(OCCCCCCCCCC)c3)c3nc4c5ccccc5c5ccccc5c4nc23)cc1OCCCCCCCCCC
- fluorescence lifetime (in C1CCOC1): 8.24 ns
- fluorescence lifetime (in Cc1ccccc1): 7.1 ns
- fluorescence lifetime (in ClCCl): 8.66 ns

SMILES: CN(C)c1ccc(C(=Cc2ccc(/C=C(\C#N)c3ccccc3)cc2)c2ccc(N(C)C)cc2)cc1
- fluorescence lifetime (in C1CCOC1): 0.3 ns

SMILES: Fc1c(-c2nnc(-c3ccccc3)o2)c(-n2c3ccccc3c3ccccc32)c(F)c(-n2c3ccccc3c3ccccc32)c1-n1c2ccccc2c2ccccc21
- fluorescence lifetime (in Cc1ccccc1): 7.7 ns

SMILES: O=C(O)CCCCCNC(=O)c1cccc2c(=O)c3ccccc3[nH]c12
- fluorescence lifetime (in O): 4.2 ns

SMILES: c1cc2ccc3ccc(OP4(Oc5ccc6ccc7cccc8ccc5c6c78)=NP(Oc5ccc6ccc7cccc8ccc5c6c78)(Oc5ccc6ccc7cccc8ccc5c6c78)=NP(Oc5ccc6ccc7cccc8ccc5c6c78)(Oc5ccc6ccc7cccc8ccc5c6c78)=N4)c4ccc(c1)c2c34
- fluorescence lifetime (in ClCCl): 2.5 ns

SMILES: COc1cc(N(c2ccccc2)c2ccccc2)ccc1C=C(C#N)C#N
- fluorescence lifetime (in C1COCCO1): 0.04 ns
- fluorescence lifetime (in CC#N): 0.02 ns
- fluorescence lifetime (in CC(C)=O): 0.05 ns
- fluorescence lifetime (in CCOC(C)=O): 0.07 ns
- fluorescence lifetime (in CN(C)C=O): 0.03 ns
- fluorescence lifetime (in CO): 0.02 ns
- fluorescence lifetime (in Cc1ccccc1): 0.03 ns
- fluorescence lifetime (in ClC(Cl)Cl): 0.1 ns
- fluorescence lifetime (in ClCCl): 0.06 ns

SMILES: COc1cc2c(cc1-c1ccc(N(c3ccccc3)c3ccccc3)cc1)Cc1c3c(c4c(c1-2)-c1cc(OC)c(-c2ccc(N(c5ccccc5)c5ccccc5)cc2)cc1C4)C(=O)N(CCC(C)C)C3=O
- fluorescence lifetime (in C1CCOC1): 4.14 ns

SMILES: c1ccc(-c2nc(-c3ccc(-c4nc(-c5ccccc5)c(-c5ccccc5)[nH]4)cc3)[nH]c2-c2ccccc2)cc1
- fluorescence lifetime (in CC#N): 1.11 ns
- fluorescence lifetime (in CS(C)=O): 1.05 ns

SMILES: COc1nc(Cl)nc(Nc2ccc3c4cccc5cccc(c6cccc2c63)c54)n1
- fluorescence lifetime (in CCOC(C)=O): 3.5 ns
- fluorescence lifetime (in CS(C)=O): 4 ns

SMILES: FC(F)(F)c1ccc(-n2c(-c3ccc(N(c4ccc(-c5ccc(N(c6ccc(-c7nc8c9ccccc9c9ccccc9c8n7-c7ccc(C(F)(F)F)cc7)cc6)c6ccc(-c7nc8c9ccccc9c9ccccc9c8n7-c7ccc(C(F)(F)F)cc7)cc6)cc5)cc4)c4ccc(-c5nc6c7ccccc7c7ccccc7c6n5-c5ccc(C(F)(F)F)cc5)cc4)cc3)nc3c4ccccc4c4ccccc4c32)cc1
- fluorescence lifetime (in ClCCl): 1.61 ns

SMILES: CCCCCCN1C(=O)c2cccc3cc(/N=C\c4ccc(N5CCOCC5)cc4)cc(c23)C1=O
- fluorescence lifetime (in ClC(Cl)Cl): 3.84 ns

The remaining lines, values ahead:

- fluorescence lifetime (in ClCCl): 1.6 ns
SMILES: COc1ccc2oc(=N)c(C#N)cc2c1

- fluorescence lifetime (in CCCCCC): 6.62 ns
- fluorescence lifetime (in CO): 6.69 ns
- fluorescence lifetime (in ClCCl): 6.16 ns
SMILES: CC1=C2C=CC=[N+]2[B-](F)(F)n2cccc21

- fluorescence lifetime (in CC#N): 1.01 ns
SMILES: Cc1ccc(-c2ccc(/C=C/c3ccc(Cl)cc3)cn2)nc1

- fluorescence lifetime (in C1CCCCC1): 8 ns
- fluorescence lifetime (in CC#N): 4.2 ns
- fluorescence lifetime (in c1ccccc1): 10 ns
SMILES: CN(C)c1cccc2c1-c1ccccc1C2=O

- fluorescence lifetime (in C1CCCCC1): 5.3 ns
- fluorescence lifetime (in CC#N): 14 ns
- fluorescence lifetime (in CCO): 1.1 ns
SMILES: COc1ccc2c(c1)-c1ccccc1C2=O

- fluorescence lifetime (in CC#N): 1.91 ns
- fluorescence lifetime (in ClCCl): 1.37 ns
SMILES: Nc1nc2ccc(Br)cc2s1
